Molecular target: T1, P2X7 receptor (Homo sapiens, UniProt Q99572)
T1 construct: host or cells: THP-1 cells differentiated with LPS and IFN-γ
T1 sequence (Q99572 1-595): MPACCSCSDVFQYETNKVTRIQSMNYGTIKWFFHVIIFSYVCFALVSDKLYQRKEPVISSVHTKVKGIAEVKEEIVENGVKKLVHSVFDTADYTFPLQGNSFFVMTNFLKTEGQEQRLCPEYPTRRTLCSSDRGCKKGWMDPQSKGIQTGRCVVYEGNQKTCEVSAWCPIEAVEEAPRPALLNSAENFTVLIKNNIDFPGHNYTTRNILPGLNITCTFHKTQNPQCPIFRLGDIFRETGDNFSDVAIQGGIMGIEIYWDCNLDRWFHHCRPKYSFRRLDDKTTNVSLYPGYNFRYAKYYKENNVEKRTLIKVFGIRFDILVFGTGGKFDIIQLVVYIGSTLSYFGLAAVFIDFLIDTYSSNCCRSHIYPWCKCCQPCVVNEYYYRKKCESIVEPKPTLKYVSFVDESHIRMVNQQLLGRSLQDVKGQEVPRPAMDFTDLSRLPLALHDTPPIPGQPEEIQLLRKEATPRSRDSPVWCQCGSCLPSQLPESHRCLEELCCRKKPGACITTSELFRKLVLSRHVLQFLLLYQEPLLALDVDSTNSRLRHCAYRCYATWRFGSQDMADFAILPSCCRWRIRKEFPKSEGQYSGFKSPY
Assay: IL-1β release assay in differentiated THP-1 cells stimulated with BzATP (Example 9)
Assay type: cell-based
Parameters: inhibition: dose or concentration left out as unconfirmed
Details: THP-1; read-out: IL-1β % Inhib.
Outline: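 IC50 derived by four-parameter logistic fit of percent inhibition of IL-1β release, measured by ELISA after 45 min stimulation with 250 uM BzATP. Cells: THP-1 differentiated 16 h with 100 ng/mL LPS plus IFN-γ, LPS-primed 2 h, compound added 30 min beforehand.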

SMILES	inhibition [%]
Cc1cccc(C(=O)Nc2cccc3c(=O)n(CC4CCN(C)CC4)ccc23)c1 [Compound 1465]	0 to 25
CC(C(=O)Nc1cccc2c(=O)n(CC3CCN(C)CC3)ccc12)c1ccccc1 (stereo not drawn) [Compound 1466]	0 to 25
COc1ccccc1CCC(=O)Nc1cccc2c(=O)n(CC3CCN(C)CC3)ccc12 [Compound 1467]	0 to 25
COc1ccc(CCC(=O)Nc2cccc3c(=O)n(CC4CCN(C)CC4)ccc23)cc1 [Compound 1468]	0 to 25
CN1CCC(Cn2ccc3c(NC(=O)c4cccc5ccccc45)cccc3c2=O)CC1 [Compound 1469]	0 to 25
CN1CCC(Cn2ccc3c(NC(=O)Cc4cccc5ccccc45)cccc3c2=O)CC1 [Compound 1470]	0 to 25
CN1CCC(Cn2ccc3c(NC(=O)c4ccc5ccccc5c4)cccc3c2=O)CC1 [Compound 1471]	0 to 25
COc1ccc(OC)c(CC(=O)Nc2cccc3c(=O)n(CC4CCN(C)CC4)ccc23)c1 [Compound 1472]	0 to 25
COc1ccc(CC(=O)Nc2cccc3c(=O)n(CC4CCN(C)CC4)ccc23)cc1OC [Compound 1473]	0 to 25
COc1ccc(CC(=O)Nc2cccc3c(=O)n(CC4CCN(C)CC4)ccc23)cc1 [Compound 1474]	0 to 25
CN1CCC(Cn2ccc3c(NC(=O)CCCc4ccccc4)cccc3c2=O)CC1 [Compound 1475]	0 to 25
COc1cc(CC(=O)Nc2cccc3c(=O)n(CC4CCN(C)CC4)ccc23)cc(OC)c1 [Compound 1477]	0 to 25
Cc1cc(Cl)ccc1C(=O)Nc1cccc2c(=O)n(CC3CCN(C)CC3)ccc12 [Compound 1478]	0 to 25
CN1CCC(Cn2ccc3c(NC(=O)CC4CC5CC[C@H]4C5)cccc3c2=O)CC1 (stereo partly drawn) [Compound 1479]	0 to 25
CN1CCC(Cn2ccc3c(NC(=O)c4ccc5c(c4)OCCCO5)cccc3c2=O)CC1 [Compound 1480]	0 to 25
Cc1c(Cl)cccc1C(=O)Nc1cccc2c(=O)n(CC3CCN(C)CC3)ccc12 [Compound 1481]	0 to 25
Cc1cc(C)cc(CC(=O)Nc2cccc3c(=O)n(CC4CCN(C)CC4)ccc23)c1 [Compound 1482]	26 to 50
CN1CCC(Cn2ccc3c(NC(=O)C4C[C@@H]5CC[C@H]4C5)cccc3c2=O)CC1 (stereo partly drawn) [Compound 1483]	26 to 50

SMILES	inhibition [%]
COc1ccc(CC(=O)Nc2cccc3c(=O)n(CC4CCN(C)CC4)ccc23)c(OC)c1 [Compound 1484]	0 to 25
CN1CCC(Cn2ccc3c(NC(=O)CCc4ccc(Cl)cc4)cccc3c2=O)CC1 [Compound 1485]	0 to 25
Cc1ccc(Cl)c(C(=O)Nc2cccc3c(=O)n(CC4CCN(C)CC4)ccc23)c1 [Compound 1486]	0 to 25
Cc1ccc(Cl)cc1C(=O)Nc1cccc2c(=O)n(CC3CCN(C)CC3)ccc12 [Compound 1487]	0 to 25
Cc1cccc(CCC(=O)Nc2cccc3c(=O)n(CC4CCN(C)CC4)ccc23)c1 [Compound 1488]	0 to 25
Cc1cccc(C(=O)Nc2cccc3c(=O)n(CC4CCN(C)CC4)ccc23)c1Cl [Compound 1489]	0 to 25
COc1ccc(C(=O)Nc2cccc3c(=O)n(CC4CCN(C)CC4)ccc23)cc1C [Compound 1490]	0 to 25
Cc1ccc(CCC(=O)Nc2cccc3c(=O)n(CC4CCN(C)CC4)ccc23)c(C)c1 [Compound 1491]	0 to 25
CN1CCC(Cn2ccc3c(NC(=O)CCc4cccc(Cl)c4)cccc3c2=O)CC1 [Compound 1492]	0 to 25
COc1ccc(C(=O)Nc2cccc3c(=O)n(CCCN4CCCC4=O)ccc23)c(C)c1 [Compound 1493]	0 to 25
C[C@H]1CC[C@H](C(=O)Nc2cccc3c(=O)n(CCCN4CCCC4=O)ccc23)CC1 [Compound 1494]	0 to 25
Cc1ccccc1CCC(=O)Nc1cccc2c(=O)n(CCCN3CCCC3=O)ccc12 [Compound 1495]	0 to 25
O=C(Nc1cccc2c(=O)n(CCCN3CCCC3=O)ccc12)c1ccc(-c2ccccc2)o1 [Compound 1496]	0 to 25
COc1cccc(CCC(=O)Nc2cccc3c(=O)n(CCCN4CCCC4=O)ccc23)c1 [Compound 1497]	26 to 50
Cc1cc(C)c(CC(=O)Nc2cccc3c(=O)n(CCCN4CCCC4=O)ccc23)c(C)c1 [Compound 1498]	0 to 25
Cc1ccc(C)c(CC(=O)Nc2cccc3c(=O)n(CCCN4CCCC4=O)ccc23)c1 [Compound 1499]	0 to 25
COc1ccc(C(=O)Nc2cccc3c(=O)n(CCCN4CCCC4=O)ccc23)cc1Cl [Compound 1500]	0 to 25
O=C(CCc1ccccc1Cl)Nc1cccc2c(=O)n(CCCN3CCCC3=O)ccc12 [Compound 1501]	0 to 25

Results, then the compound that gave them:

inhibition [%]	SMILES
0 to 25	O=C(CCc1ccc2c(c1)OCO2)Nc1cccc2c(=O)n(CCCN3CCCC3=O)ccc12 [Compound 1502]
0 to 25	Cc1cc(C(=O)Nc2cccc3c(=O)n(CCCN4CCCC4=O)ccc23)ccc1Cl [Compound 1503]
51 to 75	O=C(Nc1cccc2c(=O)n(CCCN3CCCC3=O)ccc12)c1ccccc1Cl [Compound 1504]
26 to 50	O=C(Nc1cccc2c(=O)n(CCCN3CCCC3=O)ccc12)c1ccc(Cl)cc1Cl [Compound 1505]
0 to 25	Cc1ccccc1C(=O)Nc1cccc2c(=O)n(CCCN3CCCC3=O)ccc12 [Compound 1507]
0 to 25	Cc1cccc(C(=O)Nc2cccc3c(=O)n(CCCN4CCCC4=O)ccc23)c1C [Compound 1508]
0 to 25	Cc1ccc(C(=O)Nc2cccc3c(=O)n(CCCN4CCCC4=O)ccc23)c(C)c1 [Compound 1509]
0 to 25	Cc1ccc(C)c(C(=O)Nc2cccc3c(=O)n(CCCN4CCCC4=O)ccc23)c1 [Compound 1510]
0 to 25	O=C(Nc1cccc2c(=O)n(CCCN3CCCC3=O)ccc12)c1cc(Cl)cc(Cl)c1 [Compound 1511]
0 to 25	COc1cc(OC)cc(C(=O)Nc2cccc3c(=O)n(CCCN4CCCC4=O)ccc23)c1 [Compound 1512]
0 to 25	Cc1cccc(C(=O)Nc2cccc3c(=O)n(CCCN4CCCC4=O)ccc23)c1 [Compound 1513]
0 to 25	CCOc1ccc(C(=O)Nc2cccc3c(=O)n(CCCN4CCCC4=O)ccc23)cc1 [Compound 1514]
0 to 25	O=C(Nc1cccc2c(=O)n(CCCN3CCCC3=O)ccc12)c1ccc(-c2ccccc2)cc1 [Compound 1515]
0 to 25	CC(C)(C)c1ccc(C(=O)Nc2cccc3c(=O)n(CCCN4CCCC4=O)ccc23)cc1 [Compound 1516]
0 to 25	CC(C(=O)Nc1cccc2c(=O)n(CCCN3CCCC3=O)ccc12)c1ccccc1 (stereo not drawn) [Compound 1517]
0 to 25	COc1ccccc1CCC(=O)Nc1cccc2c(=O)n(CCCN3CCCC3=O)ccc12 [Compound 1518]
0 to 25	O=C(Cc1ccccc1Cl)Nc1cccc2c(=O)n(CCCN3CCCC3=O)ccc12 [Compound 1519]
0 to 25	COc1ccc(CC(=O)Nc2cccc3c(=O)n(CCCN4CCCC4=O)ccc23)cc1OC [Compound 1520]
0 to 25	Cc1cccc(CC(=O)Nc2cccc3c(=O)n(CCCN4CCCC4=O)ccc23)c1 [Compound 1521]
0 to 25	COc1ccc(CC(=O)Nc2cccc3c(=O)n(CCCN4CCCC4=O)ccc23)cc1 [Compound 1522]
0 to 25	CCOc1ccc(CC(=O)Nc2cccc3c(=O)n(CCCN4CCCC4=O)ccc23)cc1 [Compound 1523]

— patent US8546579B2, “Bicycloheteroaryl compounds as P2X7 modulators and uses thereof” (Evotec (US) Inc., priority 2006, dated 2013)
